Test system: 616215-338-R-J1-PDC spheroids with HUVEC/MSC, viability
Assay: Anticancer human tumor 616215-338-R-J1-PDC patient-derived colon adenocarcinoma cell line growth inhibition [PI3K]
Conditions: for IC50: curve of first compound; for viability, T/C: stronger effect = lower value
Source text: Combinatorial screen of targeted agents with the PI3K inhibitors inavolisib, alpelisib, duvelisib, and copanlisib in multi-cell type tumor spheroids
A high-throughput screen of multi-cell type tumor spheroids was designed to identify active combinations of targeted small molecules and PI3K pathway inhibitors. Complex spheroids include a stromal component modeled by human endothelial cells (HUVEC) and fibroblasts modeled by human mesenchymal stem cells (MSCs). The concentration ranges selected for each drug and investigational agent were based upon clinically achievable concentrations if the clinical Cmax of the agent was known.
Compounds. The drugs and investigational agents: inavolisib (NSC800729), alpelisib (NSC765974), duvelisib (NSC772469), copanlisib (NSC816437), ipatasertib (NSC767898), afuresertib (NSC778305), talazoparib (NSC767125), sapanisertib (NSC764658), selumetinib (NSC741078), tovorafenib (DAY101, NSC766906), vemurafenib (NSC761431), ravoxertinib (NSC781343), sotorasib (NSC818433), MRTX1133 (NSC 836407), abemaciclib (NSC 768073), palbociclib (NSC758247), venetoclax (NSC 766270), SY5609 (NSC837396), enzalutamide (NSC755605), and darolutamide (NSC825331), were obtained from the National Cancer Institute (NCI) Developmental Therapeutics Program Chemical Repository. The FDA-approved anticancer drug set is available from the NCI Developmental Therapeutics Program. […] The stock solutions were prepared in dimethyl sulfoxide (DMSO, Sigma-Aldrich, St. Louis, MO, cat. D2650) at 800-fold the tested concentration and stored at -70 degrees C prior to their use. All drugs and investigational agents were tested over a range starting from a high concentration at or near the clinical Cmax and decreasing in half-log increments. If the clinical Cmax for an agent had not been determined, the highest concentration tested was 10 microM.
Cell Culture. All cells were maintained in an incubator at 37 degrees C and 5% CO2 with 95% humidity. The PDC lines were cultured according to standard operating procedures established by the NCI PDMR (https://pdmr.cancer.gov/sops/default.htm). All PDCs were thawed and cultured in Matrigel-coated flasks prepared with a working solution of 1X Ham's F-12 nutrient mix, without supplementation (Invitrogen, Waltham, MA, cat. 11765054), 100 U/mL penicillin-streptomycin (Invitrogen, cat. 15140122), and 2.5% Matrigel (Corning Inc., Corning, NY, cat. 354248) for the first three passages. The 354836-022-R-J1-PDC, 475296-252-R-J1-PDC, and 997726-040-R-J2-PDC lines were cultured in 6A media, which includes advanced DMEM/F-12 (Thermo Fisher Scientific, cat. 12634028), 10 mM HEPES (Thermo Fisher Scientific, cat. 15630080), 1X GlutaMAX supplement (Thermo Fisher Scientific, cat. 35050061), 0.1 mg/mL primocin (InvivoGen, San Diego, CA, cat. ant-pm-2), 10% defined fetal bovine serum, heat inactivated (HyClone Laboratories Inc., Logan, UT, cat. SH30070.03HI), 50% L-WRN conditioned media (ATCC, cat. CRL-3276), 1.25 mM N-Acetyl-L-cysteine (Sigma-Aldrich, cat. A9165), 10 mM nicotinamide (Sigma-Aldrich, cat. N0636), 1X B-27 supplement (Thermo Fisher Scientific, cat. 17504044), 1X N-2 supplement (Thermo Fisher Scientific, cat. 17502048), and 10 microM Y-27632 dihydrochloride (Tocris Bioscience, Bristol, United Kingdom, cat. 1254). The 624824-186-R-J2-PDC line was cultured in 6C/Colon 1B media, which includes all 6A media components plus 50 ng/mL human EGF recombinant protein (Thermo Fisher Scientific, cat. PHG0311). […]
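Also: spheroids exposed to agents for seven days before the viability read.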

**Q.** For `Cn1nccc1Nc1nccc(-c2ccn(C(CO)c3ccc(Cl)c(F)c3)c(=O)c2)n1` (configuration not stated) + COc1c(OCCCN2CCOCC2)ccc2c3n(c(=NC(=O)c4cnc(N)nc4)nc12)CCN3, which IC50 (second compound 0.00316 µM) is on record?
**A.** The IC50 was 3.28 µM.

**Q.** What about the IC50 (second compound 0.01 µM) of the same compound?
**A.** Its IC50 is 1.11 µM.

**Q.** And the IC50 (second compound 0.0316 µM)?
**A.** Its IC50 is 0.659 µM.

**Q.** And the IC50 (second compound 0.1 µM)?
**A.** Its IC50 is 0.412 µM.

**Q.** And the IC50 (second compound 0.316 µM)?
**A.** Its IC50 is under 0.0316 µM.

**Q.** What about the IC50 (second compound 1 µM) of the same compound?
**A.** Its IC50 is under 0.0316 µM.

**Q.** What about the viability, T/C (second compound 0.00316 µM, first compound 0.0316 µM) of the same compound?
**A.** The viability, T/C was 99.7%.

**Q.** What about the viability, T/C (second compound 0.00316 µM, first compound 0.1 µM) of the same compound?
**A.** The viability, T/C was 94.4%.

**Q.** And the viability, T/C (second compound 0.00316 µM, first compound 0.316 µM)?
**A.** The viability, T/C was 76.8%.

**Q.** What about the viability, T/C (second compound 0.00316 µM, first compound 1 µM) of the same compound?
**A.** The viability, T/C was 67.7%.

**Q.** And the viability, T/C (second compound 0.00316 µM, first compound 3.16 µM)?
**A.** Its viability, T/C is 48.5%.

**Q.** And the viability, T/C (second compound 0.00316 µM, first compound 10 µM)?
**A.** The viability, T/C was 40.7%.

**Q.** What about the viability, T/C (second compound 0.01 µM, first compound 0.0316 µM) of the same compound?
**A.** The viability, T/C was 96.7%.

**Q.** And the viability, T/C (second compound 0.01 µM, first compound 0.1 µM)?
**A.** The viability, T/C was 102%.

**Q.** What about the viability, T/C (second compound 0.01 µM, first compound 0.316 µM) of the same compound?
**A.** The viability, T/C was 81.2%.

**Q.** What about the viability, T/C (second compound 0.01 µM, first compound 1 µM) of the same compound?
**A.** The viability, T/C was 49.8%.

**Q.** And the viability, T/C (second compound 0.01 µM, first compound 3.16 µM)?
**A.** The viability, T/C was 42.4%.

**Q.** What about the viability, T/C (second compound 0.01 µM, first compound 10 µM) of the same compound?
**A.** The viability, T/C was 28.8%.

**Q.** What about the viability, T/C (second compound 0.0316 µM, first compound 0.0316 µM) of the same compound?
**A.** Its viability, T/C is 94.1%.

**Q.** What about the viability, T/C (second compound 0.0316 µM, first compound 0.1 µM) of the same compound?
**A.** Its viability, T/C is 92.8%.

**Q.** What about the viability, T/C (second compound 0.0316 µM, first compound 0.316 µM) of the same compound?
**A.** Its viability, T/C is 59.6%.

**Q.** And the viability, T/C (second compound 0.0316 µM, first compound 1 µM)?
**A.** Its viability, T/C is 42.2%.

**Q.** And the viability, T/C (second compound 0.0316 µM, first compound 3.16 µM)?
**A.** The viability, T/C was 25.6%.

**Q.** And the viability, T/C (second compound 0.0316 µM, first compound 10 µM)?
**A.** Its viability, T/C is 10.7%.

**Q.** And the viability, T/C (second compound 0.1 µM, first compound 0.0316 µM)?
**A.** Its viability, T/C is 92.4%.

**Q.** And the viability, T/C (second compound 0.1 µM, first compound 0.1 µM)?
**A.** The viability, T/C was 83.8%.

**Q.** And the viability, T/C (second compound 0.1 µM, first compound 0.316 µM)?
**A.** The viability, T/C was 46.6%.

**Q.** What about the viability, T/C (second compound 0.1 µM, first compound 1 µM) of the same compound?
**A.** Its viability, T/C is 37.5%.

**Q.** What about the viability, T/C (second compound 0.1 µM, first compound 3.16 µM) of the same compound?
**A.** The viability, T/C was 13.9%.

**Q.** What about the viability, T/C (second compound 0.1 µM, first compound 10 µM) of the same compound?
**A.** The viability, T/C was 0.2%.

**Q.** What about the viability, T/C (second compound 0.316 µM, first compound 0.0316 µM) of the same compound?
**A.** Its viability, T/C is 38%.

**Q.** And the viability, T/C (second compound 0.316 µM, first compound 0.1 µM)?
**A.** The viability, T/C was 38.6%.

**Q.** What about the viability, T/C (second compound 0.316 µM, first compound 0.316 µM) of the same compound?
**A.** The viability, T/C was 22.6%.

**Q.** What about the viability, T/C (second compound 0.316 µM, first compound 1 µM) of the same compound?
**A.** The viability, T/C was 13.2%.

**Q.** What about the viability, T/C (second compound 0.316 µM, first compound 3.16 µM) of the same compound?
**A.** The viability, T/C was 1.77%.

**Q.** And the viability, T/C (second compound 0.316 µM, first compound 10 µM)?
**A.** Its viability, T/C is 0.14%.

**Q.** What about the viability, T/C (second compound 1 µM, first compound 0.0316 µM) of the same compound?
**A.** Its viability, T/C is 19.6%.

**Q.** What about the viability, T/C (second compound 1 µM, first compound 0.1 µM) of the same compound?
**A.** Its viability, T/C is 11.4%.

**Q.** And the viability, T/C (second compound 1 µM, first compound 0.316 µM)?
**A.** The viability, T/C was 4.09%.

**Q.** And the viability, T/C (second compound 1 µM, first compound 1 µM)?
**A.** Its viability, T/C is 0.93%.

**Q.** And the viability, T/C (second compound 1 µM, first compound 3.16 µM)?
**A.** The viability, T/C was 0.9%.

**Q.** And the viability, T/C (second compound 1 µM, first compound 10 µM)?
**A.** The viability, T/C was 0.16%.
